Results from US11458123B2 (Arvinas, Inc., priority 2016, dated 2022).

test system: tau protein; experiment: Tau protein in vitro degradation assay (Western blot, Tau-13 antibody); format: cell-based, human; details: SK-N-SH cells; 72 hours of incubation; tested at 300 nM, 100 nM, 33 nM and 11 nM; Western blot, Tau-13 antibody
Procedure, shortened: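 Tau degradation read by Tau-13 Western blot (detects all human tau forms) of SDS-PAGE-resolved lysates from SK-N-SH cells. Cells were plated at least 18 h before 72 h exposure to PROTACs at either 1000/300/100 nM or 300/100/33/11 nM.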

SMILES	Degradation activity (tau protein remaining; highest amount of degradation observed at any dosage)	Degradation activity* (highest amount of degradation observed at any dosage; tau protein remaining)
Cn1c2ccncc2c2ccc(-c3ccc(O[C@H]4C[C@H](OCCOCCOC5CC6(C5)CN(c5ccc7c(c5)C(=O)N(C5CCC(=O)NC5=O)C7=O)C6)C4)nc3)cc21 (stereo partly shown) [Compound 213, 2-(2,6-dioxopiperidin-3-yl)-5-(6-(2-(2-((1r,3r)-3-((5-(5-methyl-5H-pyrido[4,3-b]indol-7-yl)pyridin-2-yl)oxy)cyclobutoxy)ethoxy)ethoxy)-2-azaspiro[3.3]heptan-2-yl)isoindoline-1,3-dione]	C (>80% tau protein remaining after 72 hours of incubation with the test compound)	
Cn1c2ccncc2c2ccc(-c3ccc(O[C@H]4C[C@H](Oc5ccc(C#CCCCCOc6ccc7c(c6)C(=O)N(C6CCC(=O)NC6=O)C7=O)cn5)C4)nc3)cc21 (stereo partly shown) [Compound 102, 2-(2,6-dioxopiperidin-3-yl)-5-((6-(6-((1r,3r)-3-((5-(5-methyl-5H-pyrido[4,3-b]indol-7-yl)pyridin-2-yl)oxy)cyclobutoxy)pyridin-3-yl)hex-5-yn-1-yl)oxy)isoindoline-1,3-dione]		C (>80% tau protein remaining after 72 hours of incubation with the test compound)
Cn1c2ccncc2c2ccc(-c3cnc(O[C@H]4C[C@H](OC5CCN(CCCCCOc6ccc7c(c6)C(=O)N(C6CCC(=O)NC6=O)C7=O)CC5)C4)c(C(F)(F)F)c3)cc21 (stereo partly shown) [Compound 123, 2-(2,6-dioxopiperidin-3-yl)-5-((5-(4-((1r,3r)-3-((5-(5-methyl-5H-pyrido[4,3-b]indol-7-yl)-3-(trifluoromethyl)pyridin-2-yl)oxy)cyclobutoxy)piperidin-1-yl)pentyl)oxy)isoindoline-1,3-dione]		C (>80% tau protein remaining after 72 hours of incubation with the test compound)
O=C1CCC(N2C(=O)c3ccc(OCC#Cc4ccc(O[C@H]5C[C@H](Oc6ccc(-c7cc8[nH]c9ccncc9c8c(F)c7F)cn6)C5)cn4)cc3C2=O)C(=O)N1 (stereo partly shown) [Compound 204, 5-((3-(5-((1r,3r)-3-((5-(8,9-difluoro-5H-pyrido[4,3-b]indol-7-yl)pyridin-2-yl)oxy)cyclobutoxy)pyridin-2-yl)prop-2-yn-1-yl)oxy)-2-(2,6-dioxopiperidin-3-yl)isoindoline-1,3-dione]	C (>80% tau protein remaining after 72 hours of incubation with the test compound)	
Cn1c2ccncc2c2ccc(-c3ccc(O[C@H]4C[C@H](Oc5cccc(OCCCCCCOc6ccc7c(c6)C(=O)N(C6CCC(=O)NC6=O)C7=O)c5)C4)nc3)cc21 (stereo partly shown) [Compound 84, 2-(2,6-dioxopiperidin-3-yl)-5-((6-(3-((1r,3r)-3-((5-(5-methyl-5H-pyrido[4,3-b]indol-7-yl)pyridin-2-yl)oxy)cyclobutoxy)phenoxy)hexyl)oxy)isoindoline-1,3-dione]		C (>80% tau protein remaining after 72 hours of incubation with the test compound)
Cn1c2ccncc2c2ccc(-c3ccc(O[C@H]4C[C@H](Oc5ccc(CCCCCCOc6ccc7c(c6)C(=O)N(C6CCC(=O)NC6=O)C7=O)cn5)C4)nc3)cc21 (stereo partly shown) [Compound 110, 2-(2,6-dioxopiperidin-3-yl)-5-((6-(6-((1r,3r)-3-((5-(5-methyl-5H-pyrido[4,3-b]indol-7-yl)pyridin-2-yl)oxy)cyclobutoxy)pyridin-3-yl)hexyl)oxy)isoindoline-1,3-dione]		C (>80% tau protein remaining after 72 hours of incubation with the test compound)
O=C1CCC(N2C(=O)c3ccc(N4CCN(CCCc5ccc(O[C@H]6C[C@H](Oc7ccc(-c8ccc9c(c8)[nH]c8ccncc89)cn7)C6)cn5)CC4)cc3C2=O)C(=O)N1 (stereo partly shown) [Compound 64, 5-(4-(3-(5-((1r,3r)-3-((5-(5H-pyrido[4,3-b]indol-7-yl)pyridin-2-yl)oxy)cyclobutoxy)pyridin-2-yl)propyl)piperazin-1-yl)-2-(2,6-dioxopiperidin-3-yl)isoindoline-1,3-dione]		C (>80% tau protein remaining after 72 hours of incubation with the test compound)
Cn1c2ccncc2c2ccc(-c3ccc(O[C@H]4C[C@H](OCCCOCCCOC5CN(c6ccc7c(c6)C(=O)N(C6CCC(=O)NC6=O)C7=O)C5)C4)nc3)cc21 (stereo partly shown) [Compound 104, 2-(2,6-dioxopiperidin-3-yl)-5-(3-(3-(3-((1r,3r)-3-((5-(5-methyl-5H-pyrido[4,3-b]indol-7-yl)pyridin-2-yl)oxy)cyclobutoxy)propoxy)propoxy)azetidin-1-yl)isoindoline-1,3-dione]		A (≤50% tau protein remaining after 72 hours of incubation with the test compound)
Cn1c2ccncc2c2ccc(-c3ccc(OCCCCCOCCCCCCC4CN(c5ccc6c(c5)C(=O)N(C5CCC(=O)NC5=O)C6=O)C4)nc3)cc21 (stereo not shown) [Compound 133, 2-(2,6-dioxopiperidin-3-yl)-5-(3-(6-((5-((5-(5-methyl-5H-pyrido[4,3-b]indol-7-yl)pyridin-2-yl)oxy)pentyl)oxy)hexyl)azetidin-1-yl)isoindoline-1,3-dione]		A (≤50% tau protein remaining after 72 hours of incubation with the test compound)
Cn1c2ccncc2c2ccc(-c3ccc(O[C@H]4C[C@H](OCCCC(F)(F)CN5CC6(C5)CN(c5ccc7c(c5)C(=O)N(C5CCC(=O)NC5=O)C7=O)C6)C4)nc3)cc21 (stereo partly shown) [Compound 150, 5-(6-(2,2-difluoro-5-((1r,3r)-3-((5-(5-methyl-5H-pyrido[4,3-b]indol-7-yl)pyridin-2-yl)oxy)cyclobutoxy)pentyl)-2,6-diazaspiro[3.3]heptan-2-yl)-2-(2,6-dioxopiperidin-3-yl)isoindoline-1,3-dione]		B (≤80% and >50% tau protein remaining after 72 hours of incubation with the test compound)
O=C1CCC(N2C(=O)c3ccc(OCCCCC#Cc4ccc(O[C@H]5C[C@H](Oc6ccc(-c7ccc8c(c7)[nH]c7ccncc78)cn6)C5)cn4)cc3C2=O)C(=O)N1 (stereo partly shown) [Compound 172, 5-((6-(5-((1r,3r)-3-((5-(5H-pyrido[4,3-b]indol-7-yl)pyridin-2-yl)oxy)cyclobutoxy)pyridin-2-yl)hex-5-yn-1-yl)oxy)-2-(2,6-dioxopiperidin-3-yl)isoindoline-1,3-dione]	C (>80% tau protein remaining after 72 hours of incubation with the test compound)	
Cn1c2ccncc2c2ccc(-c3ccc(O[C@H]4C[C@H](OC5CCN(c6cccc(C#CCOc7ccc8c(c7)C(=O)N(C7CCC(=O)NC7=O)C8=O)c6)CC5)C4)nc3)cc21 (stereo partly shown) [Compound 198, 2-(2,6-dioxopiperidin-3-yl)-5-((3-(3-(4-((1r,3r)-3-((5-(5-methyl-5H-pyrido[4,3-b]indol-7-yl)pyridin-2-yl)oxy)cyclobutoxy)piperidin-1-yl)phenyl)prop-2-yn-1-yl)oxy)isoindoline-1,3-dione]	A (≤50% tau protein remaining after 72 hours of incubation with the test compound)	
O=C1CCC(N2C(=O)c3ccc(OCCCCCOCCN4CCN(CCCc5ccc(-c6ccc7c(c6)[nH]c6ccncc67)cn5)CC4)cc3C2=O)C(=O)N1 (stereo not shown) [Compound 58, 5-((5-(2-(4-(3-(5-(5H-pyrido[4,3-b]indol-7-yl)pyridin-2-yl)propyl)piperazin-1-yl)ethoxy)pentyl)oxy)-2-(2,6-dioxopiperidin-3-yl)isoindoline-1,3-dione]		C (>80% tau protein remaining after 72 hours of incubation with the test compound)

same assay, conditions: SK-N-SH cells; 72 hours of incubation; tested at 1000 nM, 300 nM and 100 nM

SMILES	Activity* (highest amount of degradation observed at any dosage, as tau protein remaining)
Cc1ncsc1-c1ccc([C@H](C)NC(=O)[C@@H]2C[C@@H](O)CN2C(=O)[C@@H](NC(=O)COCCOCCOCCOCCCOc2ccc3nc(-c4ccc(N(C)C)cc4)ccc3c2)C(C)(C)C)cc1 [Compound 39, (2S,4R)-1-((S)-2-tert-butyl-18-(2-(4-(dimethylamino)phenyl)quinolin-6-yloxy)-4-oxo-6,9,12,15-tetraoxa-3-azaoctadecane)-4-hydroxy-N—((S)-1-(4-(4-methylthiazol-5-yl)phenyl)ethyl)pyrrolidine-2-carboxamide]	C (>80% tau protein remaining after 72 hours of incubation with the test compound)
Cc1ncsc1-c1ccc(CNC(=O)[C@@H]2C[C@@H](O)CN2C(=O)[C@@H](NC(=O)COCCOCCOCCCOc2ccc3nc(-c4ccc(N(C)C)cc4)ccc3c2)C(C)(C)C)cc1 [Compound 8, (2S,4R)-1-((S)-2-(tert-butyl)-15-((2-(4-(dimethylamino)phenyl)quinolin-6-yl)oxy)-4-oxo-6,9,12-trioxa-3-azapentadecanoyl)-4-hydroxy-N-(4-(4-methylthiazol-5-yl)benzyl)pyrrolidine-2-carboxamide]	C (>80% tau protein remaining after 72 hours of incubation with the test compound)
O=C1CCC(N2C(=O)c3cccc(NCCOCCOCCOCCOCCN4CCN(c5ccn6c(n5)nc5ccccc56)CC4)c3C2=O)C(=O)N1 (stereo not shown) [Compound 26, 4-((14-(4-(benzo[4,5]imidazo[1,2-a]pyrimidin-2-yl)piperazin-1-yl)-3,6,9,12-tetraoxatetradecyl)amino)-2-(2,6-dioxopiperidin-3-yl)isoindoline-1,3-dione]	C (>80% tau protein remaining after 72 hours of incubation with the test compound)
